Measurements reported in patent EP4775580A1, “COMPOUND, PHARMACEUTICAL COMPOSITION COMPRISING SAME, AND USE THEREOF” (Euregen Biopharma Co., Ltd., priority 2023, dated 2025).
Changes are numbered by the printed parent chain.

Assays:
[1] = biological target: T1, wild-type Menin protein (Menin-WT) (Homo sapiens, UniProt O00255); assay: Fluorescence polarization assay of Menin binding to MLL peptide, wild type; conditions: FP, 8 nM Menin, 4 nM MLL peptide
T1 sequence (O00255 1-615 isoform O00255-1): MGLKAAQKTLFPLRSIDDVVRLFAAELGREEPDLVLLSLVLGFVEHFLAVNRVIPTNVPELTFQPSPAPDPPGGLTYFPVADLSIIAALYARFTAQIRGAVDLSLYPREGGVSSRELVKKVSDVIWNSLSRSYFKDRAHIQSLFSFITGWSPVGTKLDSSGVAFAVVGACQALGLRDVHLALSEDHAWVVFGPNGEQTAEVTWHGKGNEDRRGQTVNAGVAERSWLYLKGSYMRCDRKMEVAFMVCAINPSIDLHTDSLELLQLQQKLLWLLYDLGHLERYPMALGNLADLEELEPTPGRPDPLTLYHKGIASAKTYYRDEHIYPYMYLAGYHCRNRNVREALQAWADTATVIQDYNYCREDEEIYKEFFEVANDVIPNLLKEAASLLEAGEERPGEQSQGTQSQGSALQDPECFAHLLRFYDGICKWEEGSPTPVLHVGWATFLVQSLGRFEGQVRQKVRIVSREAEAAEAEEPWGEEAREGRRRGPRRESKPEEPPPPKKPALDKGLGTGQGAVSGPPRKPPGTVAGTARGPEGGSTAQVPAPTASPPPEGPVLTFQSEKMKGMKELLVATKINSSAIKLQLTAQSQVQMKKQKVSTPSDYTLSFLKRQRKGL
Description: (§1) • 1. Objective: To evaluate the inhibitory activity of compounds against wild-type Menin protein (Menin-WT) and its mutant variants (Menin-M327V, Menin-M327I, Menin-T349M, Menin-S160T, Menin-S160C, Menin-G331R, and Menin-G331D). • 2. Experimental Principle: The experiment employed fluorescence polarization (FP) to detect the binding of wild-type Menin protein and its mutant variants to MLL peptide. In the absence of inhibitors, binding of wild-type Menin protein and its mutant variants to MLL peptide generates a high FP signal; upon addition of inhibitors, the binding between Menin proteins and MLL peptide is disrupted, resulting in a low FP signal. • 3. Experimental Materials: Final concentration of wild-type Menin protein and its mutant variants: 8 nM; final concentration of MLL peptide: 4 nM. Assay buffer: 50 mM Tris-HCl (pH 8.0), 120 mM NaCl, 0.005% CA-630, 2 mM DTT. • 4. […] The plate was centrifuged at 1000 rpm for 60 seconds. Subsequently, 10 µL of MLL peptide was added to each assay well. The plate was centrifuged at 1000 rpm for 60 seconds and sealed with a sealing membrane. After incubation at 23°C for 60 minutes, the plate was read using a PerkinElmer Envision reader. Data Analysis: [formula]
(§2) Curve fitting: XLFIT software was used for curve fitting, employing a four-parameter logistic model with percent inhibition versus log(compound concentration) as variables.

[2] = test system: HL-60 cells; assay: Antiproliferative activity, CellTiter-Glo, 7 days (Test Example 2), HL-60; type: cell-based; conditions: Homo sapiens, 168 h, HL-60 cells (no Menin-MLL fusion), 7 days incubation
Description: [0134] 1. Experimental Principle: MV-4-11, Molm-13, and OCI-AML-3 cells are human hematologic tumor cell lines harboring the Menin-MLL fusion. HL-60 is a wild-type human hematologic tumor cell line without Menin-MLL fusion. […] 2. Experimental Materials: MV-4-11, Molm-13, OCI-AML-3, and HL-60 cells were all purchased from Cobioer; CellTiter-Glo® was purchased from Promega (Cat. #G7571); RPMI-1640 was purchased from Viva Cell (Cat. #C3010-0500); IMDM was purchased from Viva Cell (Cat. #C3040-0500); fetal bovine serum (FBS) was purchased from Biosera (Cat. #FB-1058/500); penicillin-streptomycin was purchased from BasalMedia (Cat. #S110JV); 0.25% Trypsin-EDTA was purchased from BasalMedia (Cat. #S310KJ); dimethyl sulfoxide (DMSO) was purchased from Sinopharm (Cat. #30072418); 96-well plates were purchased from Corning (Cat. #3610); incubator was obtained from PHCbi (Model: MCO-18AC); inverted microscope was obtained from Mingmei (Cat. #MI52-0); automated cell counter was obtained from BodBoge (Model: JSY-SC-031N); microplate reader was obtained from PerkinElmer (Model: Envision); data processing software: GraphPad Prism 8.0. 3. Experimental Methods: Four cell lines in logarithmic growth phase were resuspended in their respective growth media (MV-4-11: IMDM + 20% FBS; Molm-13: RPMI-1640 + 20% FBS; OCI-AML-3: RPMI-1640 + 20% FBS; HL-60: RPMI-1640 + 10% FBS) and diluted to target densities (12,500, 6,250, 12,500, and 12,500/mL, respectively). The cell suspensions were seeded into 96-well plates at 80 µL per well and incubated overnight at 37°C in a 5% CO2 incubator. Culture medium served as the background control. Test compounds were dissolved in DMSO to prepare 10 mmol/L stock solutions. The stock solutions were first diluted to 2 mmol/L with DMSO, followed by 4-fold serial dilutions to generate 10 concentrations. From each concentration, 2 µL was diluted with 78 µL growth medium. […] After incubation at room temperature for 10 minutes, luminescence values were read using the EnVision microplate reader, and IC50 values were calculated using GraphPad Prism 8.0 software. […]

[3] = biological target: T2, Menin-M327V (Homo sapiens, UniProt O00255, M322V); assay: Fluorescence polarization assay of Menin binding to MLL peptide, M327V mutant; conditions: FP, 8 nM Menin, 4 nM MLL peptide
T2 sequence (O00255 1-615 isoform O00255-1 M327V): T1 sequence (O00255 1-615 isoform O00255-1) with M327V
Description: as §1, §2

SMILES | IC50 [1] [nM] | IC50 [2] [nM] | IC50 [3] [nM]
CCN(C(=O)c1cc(F)ccc1Oc1cncnc1N1CC2(CCN(C[C@H]3CC[C@H](NS(=O)(=O)CC)CC3)CC2)C1)C(C)C [SNDX-5613, revumenib] | 17.6 | > 10000 | 1300
CCN(C(=O)c1cc(F)ccc1N1CCN([C@@H]2CCN([C@H](CCCN(C)CCOC)C(C)C)C2)c2ncncc21)C(C)C [Example 3] | 13 | > 10000 | 49.3
